# Measured values reported in paper PMC7156724, “Potent BRD4 inhibitor suppresses cancer cell-macrophage interaction” (Nature Communications, 2020).
# Values joined by “and” are separate entries in the source; they are usually repeats but may differ in a detail not shown here. Identical values can stand only once.
# Experiments:
# A2780 ovarian tumors = test: A2780 ovarian subcutaneous tumor growth; assay type: in vivo, mouse; conditions: for Tumor volume: Fig.3b a2780, 3mg/kg p.o. QD x 15D, n=5, individual animals, in mm³ (unit assumed)
# Excerpt: PO, oral administration; QD, once daily; BID, twice daily. b–d Tumor growth curves for A2780 ovarian tumor (n = 5) (b), TMD8 large B cell lymphoma (n = 6) (c), and B16F10 melanoma (n = 5) (d) bearing mice treated with the indicated compounds once daily for 11-21 days. e, f Tumor growth curves for A375 melanoma (n = 6) (e), and patient-derived xenograft (PDX) of melanoma (n = 5) (f) bearing mice treated with the indicated compounds once daily (5 days on, 2 days off) for 21 days. For d–f, NHWD-870 used is NHWD-870-HCl synthesized using Suzuki coupling route. Data are presented as mean ± SEM in (a, b, d, f) and mean + SEM in (c, e). p values were calculated using two-tailed, unpaired t tests. *p < 0.05; **p < 0.01; ***p < 0.001. Source data are provided as a Source Data file.
# 4–6 weeks old female BALB/c nude mice were used for most experiments, with the exception of 6–8 weeks old female C57BL/6 mice were used for B16F10 experiments, and 6–8 weeks old male BALB/c nude mice and SD rats were used for pharmacokinetic experiments. All animals were purchased from Shanghai SIPPR-Bk Lab Animal Co., Ltd. All animals were housed under a regimen of 12 h light/12 h dark cycles and specific pathogen-free conditions. 5×10^6 NCI-H526, ES-2, MDA-MB231, A2780, A375, B16F10, and TMD-8 cells (0.1 ml) were injected subcutaneously into female nude mice. The melanoma patient-derived xenograft model was derived from a human melanoma sample (BRAF, NARS and NF1 wild type, and p53 mutant) removed from a patient in Xiangya Hospital. Surgically removed tumor fragments were implanted subcutaneously into female NSG mice. When the tumors grew to ~1000 mm^3, they were harvested and cryopreserved or immediately re-implanted for expansion or experiments. Mouse body weight and tumor sizes were measured every 3 days. Once the tumors grew to 150–200 mm^3, mice were treated with the compounds as described in the Figures. 1 × 10^6 A2780 cells (1 ml) were injected into the abdominal cavity of nude mice. Ascitic volume and tumor weight were measured by an electronic balance. All the procedures were evaluated and approved by the Institutional Animal Care and Use Committee of Central South University and Yale University.
# [1] = test system: TAMs (CD68+ cells) in A2780 tumors; test: Immunofluorescent staining of CD68 and Ki67 (TAMs) in subcutaneous A2780 tumors; assay type: in vivo, mouse; conditions: individual tumors
# Excerpt: Shown are immunofluorescent staining of CD68 (macrophage marker, red) and E-Cadherin (cancer cells, green) (a) and quantification of CD68 positive cells (b) in vehicle, NHWD-870 treated H526 (n = 6) and A2780 (n = 5) tumors from Fig. 3a, b, respectively. Scale bar is 100 μm. […] Shown are representative immunofluorescent staining of Ki67 and CD68 (c) and quantification of percentage of Ki67+ cells in CD68+ cells (d). Scale bar is 30 μm. Data are presented as mean ± SEM of five different tumors. e Schematics of the animal experiments using an orthotopic mouse OC model, established by intraperitoneally injecting human A2780 cells into female recipient nude mice. […] Shown are representative immunofluorescent staining of Ki67 and CD68 (h) and quantification of Ki67^+CD68^− (i) or Ki67^+CD68^+ (j), or CD68^+ cells (k). […] Data are presented as mean ± SEM from five different mice. p values were calculated using two-tailed, unpaired t tests in this figure. *p < 0.05; **p < 0.01; ***p < 0.001. […]
# Immunofluorescence staining of tumor sections was performed according to the manufacturer’s instructions. Slides were imaged using a Zeiss Axiovert 200 fluorescence microscope (Carl Zeiss MicroImaging; Thornwood, NY), and images were captured using Openlab3 software (Imprecision, Lexington, MA). Cleaved caspase 3, Ki67, CSF1, and CD68 positive cells were counted with ImageJ version 1.52s[58].
# TAMs = test: 3D Matrigel culture of TAMs, direct treatment; assay type: cell-based, mouse
# Method: CD45^+CD11b^+F4/80^+ TAMs were isolated from peritoneal metastasis of A2780 tumor-bearing mice and cultured in RPMI-1640 supplemented with 10% FBS, 1% penicillin/streptomycin, and 0–50 ng/ml CSF1 (R&D Systems) as indicated according to standard protocols. In the cancer cell-macrophage co-culture experiments, CSF1 was not added. In the transwell (Corning, pore size, 0.4 μm) co-culture experiments, tumor cells were placed into the upper chamber, and TAMs were seeded into the lower chamber.
# Single clone spheroids were generated by culturing A2780, ES-2, H526 and MDA-MB231 cells for 16 h as a hanging drop over a humidified plate in a CO2 incubator in their corresponding complete media. […] The relative spheroid sizes were measured with ImageJ version 1.52s using the 15 representative spheroids. […]
# with anti-CD45, CD11b and CD206 followed by FACS analysis. Shown are representative FACS plots (c) and quantification of the percentage of CD11b+CD206+ cells (d). Data are presented as mean ± SEM from 5 different mice. p values were calculated using two-tailed, unpaired t tests. **, p<0.01; ***, p<0.001. […] Quantification of spheroid volumes (f). Data are presented as mean ± SEM from 15 independent experiments. p values were calculated using two-tailed, unpaired t tests. **, p<0.01. […]
compound,measurement,setting,value
Cc1nnn(C)c1-c1cnc2c3c4cnn(C)c4ccc3n([C@H](c3ccccc3)C3CCOCC3)c2c1 [NHWD-870],effect on tumor growth,"A2780 ovarian tumors; A2780 ovarian tumors, oral once daily",strong tumor regression activity
same,Tumor volume,A2780 ovarian tumors; day 3,437 and 185 and 30 and 119 and 617
same,Tumor volume,A2780 ovarian tumors; day 6,183 and 151 and 27 and 79 and 405
same,Tumor volume,A2780 ovarian tumors; day 9,150 and 191 and 22 and 66 and 371
same,Tumor volume,A2780 ovarian tumors; day 12,110 and 138 and 20 and 56 and 270
same,Tumor volume,A2780 ovarian tumors; day 15,91 and 72 and 18 and 40 and 78
same,quantification of CD68 positive cells,[1]; subcutaneous A2780 tumors from Fig. 3b,0.5 and 0.3 and 0.2 and 1.2 and 2.3
same,percentage of Ki67+ cells in CD68+ cells,[1]; subcutaneous A2780 tumors,3.1 and 0 (3×) and 1.7
same,fold inhibition of colony size of macrophages,TAMs,< 2 fold
same,decrease of the ability of TAMs to form colonies in a 3D culture system,TAMs; 100 nM,< 50%
